The source of these data is patent publication US4178284A, “Octapeptides” (American Home Products Corporation, priority 1978, dated 1979).

The subject of one assay is growth hormone release. In words: growth hormone release, serum concentration, procedure of Lien et al. Febs. Letters 88 208-210 (1978). Format: in vivo. The note with it: 2 milligrams per kilogram; control 55±8 ng/ml; p<0.05. How it is done: Illustrative of the growth hormone releasing ability of the compounds of this invention is the activity of des-(66-88)-β-endorphin, representative of the other compounds, which at 2 milligrams per kilogram caused growth hormone release to result in a serum concentration of 380±124 ng/ml. as related to the control concentration of 55±8 ng/ml. at a confidence level of p<0.05, following the procedure of Lien et al. Febs. Letters 88 208-210 (1978).

For assay [1], the system named is analgesia. Description: analgesia on intracerebroventricular administration. Format: in vivo.
Assay [2] concerns analgesia. To be noted: Loh et al.; cited from earlier work.
The test system of assay [3] is analgesia. To be noted: Tseng et al.; cited from earlier work.
Assay [4] has as its system growth hormone and prolactin release. The note with it: rat; Dupont et al., Rivier et al.; cited from earlier work.

Turning to “L-Tyrosyl-glycyl-glycyl-L-phenylalanyl-L-methionyl-L-lysyl-glycyl-L-glutamine diacetate [des-(66-88)-β-endorphin]”, the “growth hormone serum concentration” value in the assay on growth hormone release turned out to be 380 ± 124 ng/mL. For the same substance, the intracerebroventricular analgesic activity result in the assay on analgesia [1] is recorded as “intracerebroventricular analgesic agents”.
For “H-Tyr-Gly-Gly-Phe-Met-Thr-Ser-Glu-Lys-Ser-Gln-Thr-Pro-Leu-Val-Thr-Leu-Phe-Lys-Asn-Ala-Ile-Ile-Lys-Asn-Ala-His-Lys-Lys-Gly-Gln-OH (H-YGGFMTSEKSQTPLVTLFKNAIIKNAHKKGQ-OH) [β-Endorphin, naturally occurring peptide isolated by Bradbury et al. and Li et al]”, in the assay with analgesia [2], the “analgesic activity by intracerebral administration” value was “potent analgesic activity”. The “analgesic activity by intravenous injection” value in the assay on analgesia [3] is “potent analgesic activity”. In assay [4], the “growth hormone release stimulation” value was “growth hormone and prolactin release stimulation”; the prolactin release stimulation entry was “growth hormone and prolactin release stimulation”.
